Measurements reported in US12065404B2, “C4-carboxylic acid-substituted tryptamine derivatives and methods of using” (priority 2022, dated 2024).
“And” between values parts separate entries of the source, which are not always exact repeats. Equal values may be shown once.

Experiments:
[1] = Mouse pharmacokinetic (PK) study, parent compound and psilocin metabolite in plasma; format: in vivo, C57Bl/6 mice; settings: for bioavailability: male, C57Bl/6, mouse, plasma, po
Text: Briefly, the procedure was as follows. […] 19, 2022.

GABAA = GABAA (Homo sapiens, UniProt P14867+P18507+P47870); format: cell-based; settings: ion channel
Sequence of GABAA (P14867 28-456): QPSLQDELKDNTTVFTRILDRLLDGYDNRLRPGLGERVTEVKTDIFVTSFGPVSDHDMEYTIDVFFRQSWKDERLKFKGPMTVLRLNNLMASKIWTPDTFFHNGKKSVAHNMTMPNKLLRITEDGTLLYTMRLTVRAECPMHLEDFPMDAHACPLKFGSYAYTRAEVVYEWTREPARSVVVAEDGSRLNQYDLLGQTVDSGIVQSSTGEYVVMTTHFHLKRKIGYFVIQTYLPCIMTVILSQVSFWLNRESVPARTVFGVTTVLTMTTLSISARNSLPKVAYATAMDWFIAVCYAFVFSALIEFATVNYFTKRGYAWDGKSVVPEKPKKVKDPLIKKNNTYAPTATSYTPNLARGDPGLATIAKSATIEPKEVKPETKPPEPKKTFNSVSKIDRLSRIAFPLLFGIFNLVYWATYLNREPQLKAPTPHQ
Sequence of GABAA (P47870 26-512): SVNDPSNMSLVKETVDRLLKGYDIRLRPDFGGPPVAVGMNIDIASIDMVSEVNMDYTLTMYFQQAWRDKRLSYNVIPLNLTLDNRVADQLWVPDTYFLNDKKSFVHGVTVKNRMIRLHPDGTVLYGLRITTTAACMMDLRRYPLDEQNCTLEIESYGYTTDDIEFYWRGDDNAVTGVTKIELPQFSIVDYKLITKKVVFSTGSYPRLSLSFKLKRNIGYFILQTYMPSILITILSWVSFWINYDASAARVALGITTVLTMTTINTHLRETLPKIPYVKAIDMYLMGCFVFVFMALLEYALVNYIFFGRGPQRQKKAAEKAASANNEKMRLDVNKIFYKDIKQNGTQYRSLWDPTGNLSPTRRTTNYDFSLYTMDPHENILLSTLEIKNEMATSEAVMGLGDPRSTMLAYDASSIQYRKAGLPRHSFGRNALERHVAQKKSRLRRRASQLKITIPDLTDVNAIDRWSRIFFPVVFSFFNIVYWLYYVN
Sequence of GABAA (P18507 40-475): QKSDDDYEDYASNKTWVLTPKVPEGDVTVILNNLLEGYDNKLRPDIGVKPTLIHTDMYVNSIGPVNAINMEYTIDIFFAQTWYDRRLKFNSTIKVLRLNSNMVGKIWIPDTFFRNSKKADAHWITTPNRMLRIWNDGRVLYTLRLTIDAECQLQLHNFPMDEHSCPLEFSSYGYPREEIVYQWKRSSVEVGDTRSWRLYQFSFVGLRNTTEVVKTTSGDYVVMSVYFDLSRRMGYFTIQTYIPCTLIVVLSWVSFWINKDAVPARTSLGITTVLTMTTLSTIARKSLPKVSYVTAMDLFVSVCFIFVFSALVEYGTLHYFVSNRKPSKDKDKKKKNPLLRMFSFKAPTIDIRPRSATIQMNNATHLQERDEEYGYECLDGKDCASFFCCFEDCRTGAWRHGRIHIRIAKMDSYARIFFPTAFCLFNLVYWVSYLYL

[2] = administered compound itself in plasma, 1 mg/kg i.v., individual animals, 1 mg/kg
[3] = administered compound itself in plasma, 1 mg/kg i.v., mean ± SD
[4] = administered compound itself in plasma, 1 mg/kg oral, individual animals, 1 mg/kg
[5] = administered compound itself in plasma, 1 mg/kg oral, mean ± SD, 1 mg/kg
[6] = administered compound itself in plasma, 3 mg/kg oral, individual animals, 3 mg/kg
[7] = administered compound itself in plasma, 3 mg/kg oral, mean ± SD
[8] = administered compound itself in plasma, 3 mg/kg oral, mean ± SD, 3 mg/kg
[9] = administered compound itself in plasma, 10 mg/kg oral, individual animals, 10 mg/kg
[10] = administered compound itself in plasma, 10 mg/kg oral, mean ± SD

Question: With CN(C)CCc1c[nH]c2cccc(OC(=O)c3ccc(Br)cc3)c12 [C(I)] as the compound, how does the “F(%), M37 considered as an outlier” value ([1]; 10 mg/kg oral, AUC0-tlast used for p.o. group, i.v. animal M37 considered an outlier, mean ± SD) read?
Answer: 3.22 ± 0.731%

Question: What about the “F(%)” value ([1]; 10 mg/kg oral, AUC0-tlast used for p.o. group, individual animals) of the same compound?
Answer: 0.447% and 0.627%

Question: And the AUC0-inf [1, 2]?
Answer: 1014 ng·h/mL and 64.4 ng·h/mL and 51.9 ng·h/mL

Question: What about the AUC0-inf/Dose [1, 2] of the same compound?
Answer: 1014 kg·ng·h/mL/mg and 64.4 kg·ng·h/mL/mg and 51.9 kg·ng·h/mL/mg

Question: What about the AUC0-tlast [1, 2] of the same compound?
Answer: 1006 ng·h/mL and 63.7 ng·h/mL and 51.4 ng·h/mL

Question: And the AUC0-tlast/Dose [1, 2]?
Answer: 1006 kg·ng·h/mL/mg and 63.7 kg·ng·h/mL/mg and 51.4 kg·ng·h/mL/mg

Question: And the “Apparent t1/2” value [1, 2]?
Answer: 72.6 min and 38.6 min

Question: What about the C0 [1, 2] of the same compound?
Answer: 3792 ng/mL and 168 ng/mL and 132 ng/mL

Question: What about the CL [1, 2] of the same compound?
Answer: 16.4 mL/min/kg and 258.9 mL/min/kg and 321.08 mL/min/kg

Question: And the MRT0-inf [1, 2]?
Answer: 46.8 min and 39.4 min

Question: And the Vss [1, 2]?
Answer: 0.56 L/kg and 12.109 L/kg and 12.65 L/kg

Question: What about the AUC0-inf/Dose [1, 3] of the same compound?
Answer: 377 ± 552 kg·ng·h/mL/mg

Question: What about the AUC0-tlast/Dose [1, 3] of the same compound?
Answer: 374 ± 548 kg·ng·h/mL/mg

Question: What about the MRT0-inf [1, 3] of the same compound?
Answer: 40.1 ± 6.36 min

Question: And the AUC0-tlast/Dose ([1]; administered compound itself in plasma, 1 mg/kg i.v., mean, n = 2 (apparently without possible outlier M37))?
Answer: 57.6 kg·ng·h/mL/mg

Question: What about the AUC0-tlast [1, 4] of the same compound?
Answer: 2.09 ng·h/mL and 0.169 ng·h/mL and 1.75 ng·h/mL

Question: What about the AUC0-tlast/Dose [1, 4] of the same compound?
Answer: 2.09 kg·ng·h/mL/mg and 0.169 kg·ng·h/mL/mg and 1.75 kg·ng·h/mL/mg

Question: And the Cmax [1, 4]?
Answer: 0.816 ng/mL and 0.54 ng/mL and 1.28 ng/mL

Question: And the Cmax/Dose [1, 4]?
Answer: 0.816 kg·ng/mL/mg and 0.54 kg·ng/mL/mg and 1.28 kg·ng/mL/mg

Question: And the AUC0-tlast/Dose [1, 5]?
Answer: 1.34 ± 1.02 kg·ng·h/mL/mg and 1.34 kg·ng·h/mL/mg

Question: And the Cmax/Dose [1, 5]?
Answer: 0.877 ± 0.376 kg·ng/mL/mg and 0.877 kg·ng/mL/mg

Question: What about the AUC0-tlast [1, 6] of the same compound?
Answer: 5.47 ng·h/mL and 5.91 ng·h/mL

Question: And the AUC0-tlast/Dose [1, 6]?
Answer: 1.75 kg·ng·h/mL/mg and 1.82 kg·ng·h/mL/mg and 1.97 kg·ng·h/mL/mg

Question: What about the Cmax [1, 6] of the same compound?
Answer: 2.16 ng/mL and 2.34 ng/mL

Question: And the Cmax/Dose [1, 6]?
Answer: 0.650 kg·ng/mL/mg and 0.720 kg·ng/mL/mg and 0.780 kg·ng/mL/mg

Question: And the tmax [1, 6]?
Answer: 15 min

Question: And the AUC0-tlast [1, 7]?
Answer: 5.54 ± 0.330 ng·h/mL

Question: And the Cmax [1, 7]?
Answer: 2.15 ± 0.195 ng/mL

Question: What about the AUC0-tlast/Dose [1, 8] of the same compound?
Answer: 1.85 ± 0.110 kg·ng·h/mL/mg and 1.85 kg·ng·h/mL/mg

Question: And the Cmax/Dose [1, 8]?
Answer: 0.717 ± 0.0651 kg·ng/mL/mg and 0.717 kg·ng/mL/mg

Question: And the AUC0-inf [1, 9]?
Answer: 24.1 ng·h/mL

Question: And the AUC0-tlast [1, 9]?
Answer: 16.8 ng·h/mL and 23.6 ng·h/mL

Question: And the AUC0-tlast/Dose [1, 9]?
Answer: 1.58 kg·ng·h/mL/mg and 1.68 kg·ng·h/mL/mg and 2.36 kg·ng·h/mL/mg

Question: What about the “Apparent t1/2” value [1, 9] of the same compound?
Answer: 70.2 min

Question: What about the Cmax [1, 9] of the same compound?
Answer: 7.10 ng/mL and 10.9 ng/mL

Question: What about the Cmax/Dose [1, 9] of the same compound?
Answer: 0.720 kg·ng/mL/mg and 0.710 kg·ng/mL/mg and 1.09 kg·ng/mL/mg

Question: What about the MRT0-inf [1, 9] of the same compound?
Answer: 144 min

Question: What about the tmax [1, 9] of the same compound?
Answer: 30 min

Question: What about the AUC0-tlast/Dose [1, 10] of the same compound?
Answer: 1.87 ± 0.425 kg·ng·h/mL/mg

Question: What about the Cmax/Dose [1, 10] of the same compound?
Answer: 0.840 ± 0.217 kg·ng/mL/mg

Question: And the bioavailability ([1]; 1 mg/kg, 1 mg/kg oral, AUC0-tlast used for p.o. group, value might be under-estimated, mean ± SD)?
Answer: 0.355 ± 0.272%

Question: What about the bioavailability ([1]; 3 mg/kg, 3 mg/kg oral, AUC0-tlast used for p.o. group, value might be under-estimated, individual animals) of the same compound?
Answer: 0.466%

Question: And the bioavailability ([1]; 3 mg/kg, 3 mg/kg oral, AUC0-tlast used for p.o. group, value might be under-estimated, mean ± SD)?
Answer: 0.491 ± 0.0292%

Question: And the bioavailability ([1]; 10 mg/kg, 10 mg/kg oral, AUC0-tlast used for p.o. group, individual animals)?
Answer: 0.419%

Question: What about the bioavailability ([1]; 10 mg/kg, 10 mg/kg oral, AUC0-tlast used for p.o. group, mean ± SD) of the same compound?
Answer: 0.498 ± 0.113%

Question: What about the IC50 (GABAA; blocker (BL)) of the same compound?
Answer: > 100 µM

Question: What about the EC50 (GABAA; opener (OP)) of the same compound?
Answer: > 100 µM
